Laboratory results reported in ChEMBL document CHEMBL1145947, “Generation of bis-cationic heterocyclic inhibitors of Bacillus subtilis HPr kinase/phosphatase from a ditopic dynamic combinatorial library” (J Med Chem, 2003).

Legend:
HPr kinase/phosphorylase [1] = target: T1, HPr kinase/phosphorylase (Bacillus subtilis (strain 168), UniProt O34483); experiment: Inhibition of bifunctional enzyme HPr kinase/phosphatase from Bacillus subtilis at pH 7.0 and hill coefficient of 1.4
T1 sequence (O34483 whole entry): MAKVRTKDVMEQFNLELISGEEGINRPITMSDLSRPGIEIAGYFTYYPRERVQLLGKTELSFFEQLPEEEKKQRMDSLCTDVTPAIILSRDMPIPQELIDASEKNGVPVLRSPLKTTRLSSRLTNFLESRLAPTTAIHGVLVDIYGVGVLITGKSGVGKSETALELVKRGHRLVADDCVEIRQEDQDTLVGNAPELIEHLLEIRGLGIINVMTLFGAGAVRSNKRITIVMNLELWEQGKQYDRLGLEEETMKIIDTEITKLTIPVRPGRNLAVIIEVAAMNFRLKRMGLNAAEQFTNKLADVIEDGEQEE

HPr kinase/phosphorylase [2] = target: T1, HPr kinase/phosphorylase; experiment: Inhibition of bifunctional enzyme HPr kinase/phosphatase from Bacillus subtilis at pH 8.0 and hill coefficient of 2.9

IC50 (HPr kinase/phosphorylase [1]): 17 µM
IC50 (HPr kinase/phosphorylase [2]): 18 µM
Compound: N=c1n(CC(=O)N/N=C/c2ccc(/C=N/NC(=O)Cn3c(=N)n(Cc4ccccc4)c4ccccc43)cc2)c2ccccc2n1Cc1ccccc1
